Values of other authors, collected in patent US20200316037A1, “COMPOSITIONS AND METHODS FOR TREATING NEOPLASIA” (THE ANGIOGENESIS FOUNDATION, priority 2017, published 2020).
Like-named read-outs stand apart in the source and are kept apart here.

Columns and labels:
[1] = for Undesirable Local Reactions (combined stinging, burning, itching, or irritation/dermatitis/rash): monotherapy at normal concentration and standard dose frequency; for Undesirable Local Reactions (combined itching, burning, bleeding, stinging, pain/soreness, tenderness, irritation): monotherapy
[2] = test system: superficial Basal Cell Carcinoma (sBCC); details: two double-blind vehicle-controlled studies; 5x/week x 6 weeks
BCC = details: imiquimod open-label clinical study N=162

For `CCCCC(=O)O[C@]1(C(=O)CO)CC[C@H]2[C@@H]3CCC4=CC(=O)CC[C@]4(C)[C@H]3[C@@H](O)C[C@@]21C` [Hydrocortisone valerate 0.2%, Hydrocortisone valerate], which “Undesirable Local Reactions (combined stinging, burning, itching, or irritation/dermatitis/rash)” value [1] is on record?
The value was 7%.

With `C=C1/C(=C\C=C2/CCC[C@]3(C)[C@@H]([C@H](C)/C=C/[C@@H](O)C4CC4)CC[C@@H]23)C[C@@H](O)C[C@@H]1O` [Calcipotriene 0.005%, Calcipotriene] as the molecule, how does the “Undesirable Local Reactions (combined stinging, burning, itching, or irritation/dermatitis/rash)” value [1] read?
The value was 13-45%.

What does the source list for `CC(C)Cn1cnc2c(N)nc3ccccc3c21` [Imiquimod 5%, Imiquimod]?
sBCC clearance [2]: 75%; Recurrence Rate of BCC (BCC; Month 0): 10%; Recurrence Rate of BCC (BCC; Month 3): 13%; Recurrence Rate of BCC (BCC; Month 6): 15%; Recurrence Rate of BCC (BCC; Month 12): 16%; Recurrence Rate of BCC (BCC; Month 24): 21%; Recurrence Rate of BCC (BCC; Post-treatment): 0%; Undesirable Local Reactions (combined itching, burning, bleeding, stinging, pain/soreness, tenderness, irritation) ([1]; 2x/week study): 39%; Undesirable Local Reactions (combined itching, burning, bleeding, stinging, pain/soreness, tenderness, irritation) ([1]; 3x/week study): 63%; Undesirable Local Reactions (combined itching, burning, bleeding, stinging, pain/soreness, tenderness, irritation) ([1]; 5x/week study): 28%; Incidence of inflammation ([1]; monotherapy per package label, imiquimod clinical studies): ≤ 97%

Which “Undesirable Local Reactions (combined stinging, burning, itching, or irritation/dermatitis/rash)” value [1] does the source give for `CC1=C(/C=C/C(C)=C/C=C/C(C)=C/C(=O)O)C(C)(C)CCC1` [Tretinoin 0.1%, Tretinoin] here?
Its value is 15%.
